Assay [1] deals with human primary cell-based systems. Nature of the assay: BioMAP Diversity PLUS panel, phenotypic profiling. Particulars: tested at 6.7 and/or 20 μM; 24 to 72 hours. On the procedure: (§1) Anti-inflammatory phenotypic profiling was conducted across 12 human primary cell-based systems as part of DiscoverX's BioMAP Diversity Plus program. These systems are designed to model complex human tissue and disease biology of the vasculature, skin, lung, and inflammatory tissues. Quantitative measurements of biomarker activities across this broad panel were used to assess each biochemical's anti-inflammatory activity at four concentrations ([…] and 2.2, 6.7 and 20 μM). […] Protein-based biomarkers from activated cell systems were measured and compared with controls.
(§2) The Diversity PLUS panel allows test agent characterization in an unbiased way across a broad set of systems modeling various human disease states. These systems are designed to model complex human tissue and disease biology of the vasculature, skin, lung, and inflammatory tissues. Quantitative measurements of 148 biomarker activities across this broad panel, along with comparative analysis of biological activities from known bioactive agents, were used to predict and compare the efficacy and function of each selected compound at selected concentrations (6.7 and/or 20 μM).
(§3) BioMAP systems are constructed with one or more primary cell types from healthy human donors, with stimuli (such as cytokines or growth factors) added to capture relevant signaling networks that naturally occur in human tissue or pathological conditions. Vascular biology is modeled in both a Th1 (3C system) and a Th2 (4H system) inflammatory environment, as well as in a Th1 inflammatory state specific to arterial smooth muscle cells (CASM3C system). Additional systems recapitulate aspects of the systemic immune response including monocyte-driven Th1 inflammation (LPS system) or T cell stimulation (SAg system), chronic Th1 inflammation driven by macrophage activation (lMphg system) and the T cell-dependent activation of B cells that occurs in germinal centers (BT system). The BE3C system (Th1) and the BF4T system (Th2) represent airway inflammation of the lung, while the MyoF system models myofibroblast-lung tissue remodeling. Lastly, skin biology is addressed in the KF3CT system modeling Th1 cutaneous inflammation and the HDF3CGF system modeling wound healing.
(§4) Each test agent generates a signature BioMAP profile that is created from the changes in protein biomarker readouts within individual system environments. Biomarker readouts (7-17 per system) are selected for therapeutic and biological relevance, are predictive for disease outcomes or specific drug effects and are validated using agents with known mechanism of action (MoA). Each readout is measured quantitatively by immune-based methods that detect protein (e.g., ELISA) or functional assays that measure proliferation and viability. BioMAP readouts are diverse and include cell surface receptors, cytokines, chemokines, matrix molecules and enzymes. In total, the Diversity PLUS panel contains 148 biomarker readouts that capture biological changes that occur within the physiological context of the particular BioMAP system.
(§5) Activated BioMAP systems were incubated with each compound for 24 to 72 hours. Protein-based biomarkers from activated cell systems were measured and compared with non-treated control systems.

The test system of assay [2] is CASM3C: Coronary artery smooth muscle cells (IL-1β, TNFα, IFNγ). Nature of the assay: BioMAP CASM3C system. Type of assay: cell-based, human. Particulars: at the compound's active concentration.
Excerpt: (§6) The Diversity PLUS panel allows test agent characterization in an unbiased way across a broad set of systems modeling various human disease states. These systems are designed to model complex human tissue and disease biology of the vasculature, skin, lung, and inflammatory tissues.
as §3
as §4, with “enzymes.” for “enzymes. In total, the Diversity PLUS panel contains 148 biomarker readouts that capture biological changes that occur within the physiological context of the particular BioMAP system.”
as §5

Assay [3] concerns BE3C: Bronchial epithelial cells (IL-1β, IFNγ, TNFα). As to the kind of experiment: BioMAP BE3C system. The format is cell-based, human. Particulars: at the compound's active concentration.
Excerpt: as §6, §3
as §4, with “enzymes.” for “enzymes. In total, the Diversity PLUS panel contains 148 biomarker readouts that capture biological changes that occur within the physiological context of the particular BioMAP system.”
as §5

The subject of assay [4] is 4H: Venular endothelial cells (IL-4, histamine). As to the kind of experiment: BioMAP 4H system. Type of assay: cell-based, human. As to conditions: at the compound's active concentration.
Excerpt: as §2
BioMAP systems are constructed with one or more primary cell types from healthy human donors, with stimuli (such as cytokines or growth factors) added to capture relevant signaling networks that naturally occur in human tissue or pathological conditions. Vascular biology is modeled in both a Th1 (3C system) and a Th2 (4H system) inflammatory environment, as well as in a Th1 inflammatory state specific to arterial smooth muscle cells (CASM3C system). […]
as §4, with “system. […]” for “system.”
as §5

Assay [5] concerns BT: Peripheral blood mononuclear cells, B cells (α-IgM, TCR ligands). Nature of the assay: BioMAP BT system. The format is cell-based, human. On the procedure:
as §1, with “controls. Biomarker activities were annotated when 2 or more consecutive concentrations change in the same directions relative to vehicle controls, were outside of the significance envelope and had at least one concentration with an effect size>20% (log 10 ratio)>0.1.” for “controls.”
(§7) In the first system, human primary peripheral blood mononuclear cells and venular endothelial cells were stimulated with lipopolysaccharide (LPS) and incubated with the test agent, drug control, or vehicle control for 24 hours. In the second system, peripheral blood mononuclear cells and B cells were stimulated with α-IgM and T cell receptor ligands and incubated with the test agent, drug control, or vehicle control for 24 hours. In both systems, a negative, non-stimulated system was also included.
as §2, §3
as §4, with “system. […]” for “system.”

Assay [6] relates to SAg: Venular endothelial cells, peripheral blood mononuclear cells (TCR ligands). Nature of the assay: BioMAP SAg system. Type of assay: cell-based, human. As to conditions: SAg system; at the compound's active concentration. On the procedure: as §1, with “controls. Biomarker activities were annotated when 2 or more consecutive concentrations change in the same directions relative to vehicle controls, were outside of the significance envelope and had at least one concentration with an effect size>20% (log 10 ratio)>0.1.” for “controls.”
In this system, human primary peripheral blood mononuclear cells and human umbilical vein endothelial cells were stimulated with T-cell receptor ligands and incubated with the test agent, drug control, or vehicle control for 24 hours. A negative, non-stimulated system was also included. […] This antiproliferative activity was lost at higher concentrations (20 μM). In this system, T cell proliferation is considered a critical event driving an inflammatory response.
The Diversity PLUS panel allows test agent characterization in an unbiased way across a broad set of systems modeling various human disease states. These systems are designed to model complex human tissue and disease biology of the vasculature, skin, lung, and inflammatory tissues. Quantitative measurements of 148 biomarker activities across this broad panel, along with comparative analysis of biological activities from known bioactive agents, were used to predict and compare the efficacy and function of each selected compound at selected concentrations (6.7 and/or 20 μM). […]
as §4, with “system. […]” for “system.”

Assay [7] concerns HDF3CGF: Dermal fibroblasts. Nature of the assay: BioMAP HDF3CGF system. As to conditions: at the compound's active concentration. The format is cell-based, human.
Excerpt: as §2, §3
as §4, with “system. Specific BioMAP activities have been correlated to in vivo biology, and multiparameter BioMAP profiles have been used to distinguish compounds based on MoA and target selectivity across diverse physiological systems.” for “system.”
as §5

Assay [8] relates to /Mphg: Macrophages, venular endothelial cells (TLR2 ligand). Nature of the assay: BioMAP /Mphg system. Particulars: at the compound's active concentration. Type of assay: cell-based, human.
Excerpt: as §2, §3
as §4, with “system. […]” for “system.”
as §5

Assay [9] deals with LPS: Venular endothelial cells, peripheral blood mononuclear cells (TLR4 ligand). Nature of the assay: BioMAP LPS system. Type of assay: cell-based, human. On the procedure:
as §1, with “controls. Biomarker activities were annotated when 2 or more consecutive concentrations change in the same directions relative to vehicle controls, were outside of the significance envelope and had at least one concentration with an effect size>20% (log 10 ratio)>0.1.” for “controls.”
as §7, §2, §3
as §4, with “system. […]” for “system.”

In assay [10] the test system is 3C system (Th1 vascular biology). As to the kind of experiment: BioMAP 3C system. The format is cell-based, human. As to conditions: at the compound's active concentration.
Excerpt: as §4, with “The Diversity PLUS panel allows test agent characterization in an unbiased way across a broad set of systems modeling various human disease states. These systems are designed to model complex human tissue and disease biology of the vasculature, skin, lung, and inflammatory tissues. […] BioMAP systems are constructed with one or more primary cell types from healthy human donors, with stimuli (such as cytokines or growth factors) added to capture relevant signaling networks that naturally occur in human tissue or pathological conditions. […] Each test” for “Each test”, “BioMAP system. […]” for “BioMAP system.”

Setting [11] is: BT system, at the compound's active concentration.
[12] abbreviates: at the compound's active concentration.

Take `O[C@H]1[C@H](O)[C@@H](O)[C@H](O)[C@@H](O)[C@H]1O` [myo-inositol]: in [1], the Active concentrations is 6.7 µM. Moreover, the “M-CSF, log10 reduction vs nontreated controls” value in [2] (CASM3C system) is recorded as −0.10 log10. The “MMP-1, log10 reduction vs nontreated controls” value (“MMP-1, log10 reduction” below) in [3] is −0.12 log10.

In the case of `CC(=O)N[C@H](C(=O)O)[C@@H](C)O` [N-acetylthreonine], the Active concentrations in [1] amounted to 20 µM. The “VEGFR2, log10 reduction vs nontreated controls” value in assay [4] is on record as −0.16 log10. Also, the “Secreted IgG, log10 reduction vs nontreated controls” value in [5] (setting [11]) is on record as −0.41 log10.

Take `N=C(N)NCCCC(=O)O` [4-guanidinobutanoate]: in assay [6], the “CD38, log10 reduction vs nontreated controls” value was −0.10 log10 and the “T cell proliferation, log10 reduction vs nontreated controls” value was −0.13 log10. Besides, in assay [7], the “CXCL10, log10 reduction vs nontreated controls” value is recorded as −0.11 log10; the “CXCL11, log10 reduction vs nontreated controls” value is recorded as −0.19 log10; the “Collagen III, log10 reduction vs nontreated controls” value was −0.30 log10; the “Fibroblast proliferation, log10 reduction vs nontreated controls” value is −1.09 log10. In assay [7], the “TIMP-1, log10 reduction vs nontreated controls” value is reported as −0.14 log10 and the “VCAM-1, log10 reduction vs nontreated controls” value was −0.19 log10. The Active concentrations in assay [1] lay within 6.7 to 20 µM. For the same compound, in [4], the “MCP-1, log10 reduction vs nontreated controls” value is −0.12 log10. In assay [5] (setting [11]), the “Secreted IgG, log10 reduction vs nontreated controls” value is reported as −0.49 log10; the “TNF-alpha (sTNF-alpha), log10 reduction vs nontreated controls” value (“TNF-alpha (sTNF-alpha), log10 reduction” below) is recorded as −0.10 log10; the “sIL-17A, log10 reduction vs nontreated controls” value was −0.17 log10.

In the case of `O=c1[nH]c(=O)c2ncn([C@@H]3O[C@H](CO)[C@@H](O)[C@H]3O)c2[nH]1` [xanthosine], the Active concentrations in [1] was 6.7 to 20 µM. Moreover, the “Tissue factor, log10 reduction vs nontreated controls” value (“Tissue factor, log10 reduction” for short) in assay [2] (CASM3C system (system cell not printed on the line)) and in assay [9] (setting [12]) was −0.13 log10 in each case. For the same compound, the “Thrombomodulin, log10 reduction vs nontreated controls” value (“Thrombomodulin, log10 reduction” for short) in [2] (CASM3C system) was −0.11 log10. Moreover, the “IL-8, log10 reduction vs nontreated controls” value (from here on “IL-8, log10 reduction”) in [8] is recorded as −0.13 log10. Also, in [9] (setting [12]), the “CD40, log10 reduction vs nontreated controls” value is reported as −0.12 log10.

For the compound `O=C(O)c1cc(O)c2cccc(O)c2n1` [xanthurenate], in [9] (20 μM), the “Secreted prostaglandin E2 (PGE2), log10 reduction vs nontreated controls” value is reported as −0.09 log10. For the same compound, the “Secreted interleukin 6 (IL-6), log10 reduction vs controls” value in [5] (BT system (second system)) is reported as −0.13 log10. For the same compound, in assay [5] (setting [11]), the “TNF-alpha (sTNF-alpha), log10 reduction” value is reported as −0.19 log10.

On to `COc1cc(C(O)C(=O)O)ccc1O` (centres unmarked) [vanillylmandelate (VMA), vanillylmandelate], for which, in assay [8], the “IL-8, log10 reduction” value is recorded as −0.18 log10.

As to `N[C@@H](CCC(=O)N[C@@H](Cc1c[nH]cn1)C(=O)O)C(=O)O` [gamma-glutamylhistidine], the Active concentrations in [1] turned out to be 20 µM. In assay [2] (CASM3C system), the “Thrombomodulin, log10 reduction” value is −0.12 log10. Also, the “IL-8, log10 reduction” value in assay [8] is −0.15 log10. Moreover, in assay [9] (setting [12]), the “CD40, log10 reduction vs nontreated controls” value is on record as −0.11 log10 and the “E-selectin, log10 reduction vs nontreated controls” value is −0.11 log10. Besides, in assay [10], the “Tissue factor, log10 reduction” value is −0.12 log10. For the same compound, the “TNF-alpha (sTNF-alpha), log10 reduction” value in [5] (setting [11]) is recorded as −0.18 log10. Moreover, in assay [3], the “MMP-1, log10 reduction” value is given as −0.10 log10.

As for `C[C@H](CCC(=O)O)[C@H]1CC[C@H]2[C@@H]3[C@H](O)C[C@@H]4C[C@H](O)CC[C@]4(C)[C@H]3C[C@H](O)[C@]12C` [cholate], the Active concentrations in [1] was 20 µM. Moreover, the “Thrombomodulin, log10 reduction” value in [2] (CASM3C system) is listed as −0.12 log10. In addition, in [9] (setting [12]), the “Tissue factor, log10 reduction” value is −0.13 log10. For the same compound, in assay [3], the “MMP-1, log10 reduction” value was −0.10 log10.
